Measurements from ChEMBL document CHEMBL1151745, “Identification of potent, selective, and metabolically stable peptide antagonists to the calcitonin gene-related peptide (CGRP) receptor” (J Med Chem, 2008).
Calls of active or inactive are those of the source. No cut-off for these calls is given here. Where a SMILES comes first, the peptide text is derived from it. [ ]: non-standard residue; d: D form. Tpi = O=C(O)[C@@H]1Cc2c([nH]c3ccccc23)CN1; hArg = N=C(N)NCCCC[C@H](N)C(=O)O; Tic = O=C(O)[C@@H]1Cc2ccccc2CN1; Cit = NC(=O)NCCC[C@H](N)C(=O)O

Biological target: Calcitonin gene-related peptide type 1 receptor (Homo sapiens) (UniProt Q16602)
Sequence (Q16602 whole entry, looked up): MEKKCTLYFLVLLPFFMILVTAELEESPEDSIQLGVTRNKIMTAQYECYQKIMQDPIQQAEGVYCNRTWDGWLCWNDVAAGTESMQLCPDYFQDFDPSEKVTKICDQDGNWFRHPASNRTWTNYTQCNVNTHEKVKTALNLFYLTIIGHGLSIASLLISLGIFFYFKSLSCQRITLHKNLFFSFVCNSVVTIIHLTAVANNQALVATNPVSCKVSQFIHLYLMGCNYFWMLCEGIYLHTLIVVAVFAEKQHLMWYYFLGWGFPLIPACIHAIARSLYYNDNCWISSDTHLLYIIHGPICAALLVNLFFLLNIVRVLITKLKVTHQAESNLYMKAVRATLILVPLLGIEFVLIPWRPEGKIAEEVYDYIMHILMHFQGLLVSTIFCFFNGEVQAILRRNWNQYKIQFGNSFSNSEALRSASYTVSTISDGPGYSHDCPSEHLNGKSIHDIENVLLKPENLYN
Assay: Agonist activity at human CGRP1 receptor in human SK-N-MC cells

| Structure (SMILES) | Activity |
| --- | --- |
| CC(=O)N[C@@H](Cc1c[nH]c2ccccc12)C(=O)N[C@H](C(=O)N[C@H](C(=O)N[C@@H](Cc1cnc[nH]1)C(=O)N[C@@H](CCCNC(N)=O)C(=O)N[C@@H](CC(C)C)C(=O)N[C@@H](C)C(=O)NCC(=O)N[C@@H](CC(C)C)C(=O)N[C@@H](CC(C)C)C(=O)N[C@@H](CO)C(=O)N[C@@H](CCCNC(N)=O)C(=O)N[C@@H](CO)C(=O)NCC(=O)NCC(=O)N[C@H](C(=O)N[C@H](C(=O)N[C@@H](CCCCNC(=N)N)C(=O)N[C@@H](CCCCN)C(=O)N[C@@H](CC(N)=O)C(=O)N[C@@H](Cc1ccccc1)C(=O)N[C@H](C(=O)N1CCC[C@H]1C(=O)N[C@H](C(=O)N[C@@H](CC(=O)O)C(=O)N[C@H](C(=O)NCC(=O)N1Cc2[nH]c3ccccc3c2C[C@H]1C(=O)N[C@@H](Cc1ccccc1)C(=O)N[C@@H](C)C(=O)N[C@@H](Cc1ccccc1)C(N)=O)C(C)C)[C@@H](C)O)C(C)C)C(C)C)C(C)C)[C@@H](C)O)C(C)C | inactive |
| CC(=O)N[C@@H](Cc1c[nH]c2ccccc12)C(=O)N[C@H](C(=O)N[C@H](C(=O)N[C@@H](Cc1cnc[nH]1)C(=O)N[C@@H](CCCNC(N)=O)C(=O)N[C@@H](CC(C)C)C(=O)N[C@@H](C)C(=O)NCC(=O)N[C@@H](CC(C)C)C(=O)N[C@@H](CC(C)C)C(=O)N[C@@H](CO)C(=O)N[C@@H](CCCNC(N)=O)C(=O)N[C@@H](CO)C(=O)NCC(=O)NCC(=O)N[C@H](C(=O)N[C@H](C(=O)N[C@@H](CCCCNC(=N)N)C(=O)N[C@@H](CCCCN)C(=O)N[C@@H](CC(N)=O)C(=O)N[C@@H](Cc1ccccc1)C(=O)N[C@H](C(=O)N1CCC[C@H]1C(=O)N[C@H](C(=O)N[C@@H](CC(=O)O)C(=O)N[C@H](C(=O)NCC(=O)N1C[C@H](O)C[C@H]1C(=O)N[C@@H](Cc1ccccc1)C(=O)N[C@@H](C)C(=O)N[C@@H](Cc1ccccc1)C(N)=O)C(C)C)[C@@H](C)O)C(C)C)C(C)C)C(C)C)[C@@H](C)O)C(C)C | inactive |
| CC(=O)N[C@@H](Cc1c[nH]c2ccccc12)C(=O)N[C@H](C(=O)N[C@H](C(=O)N[C@@H](Cc1cnc[nH]1)C(=O)N[C@@H](CCCNC(=N)N)C(=O)N[C@@H](CC(C)C)C(=O)N[C@@H](C)C(=O)NCC(=O)N[C@@H](CC(C)C)C(=O)N[C@@H](CC(C)C)C(=O)N[C@@H](CO)C(=O)N[C@@H](CCCNC(N)=O)C(=O)N[C@@H](CO)C(=O)NCC(=O)NCC(=O)N[C@H](C(=O)N[C@H](C(=O)N[C@@H](CCCNC(=N)N)C(=O)N[C@@H](CCCCN)C(=O)N[C@@H](CC(N)=O)C(=O)N[C@@H](Cc1ccccc1)C(=O)N[C@H](C(=O)N1CCC[C@H]1C(=O)N[C@H](C(=O)N[C@@H](CC(=O)O)C(=O)N[C@H](C(=O)NCC(=O)N1CCC[C@H]1C(=O)N[C@@H](Cc1ccccc1)C(=O)N[C@@H](C)C(=O)N[C@@H](Cc1ccccc1)C(N)=O)C(C)C)[C@@H](C)O)C(C)C)C(C)C)C(C)C)[C@@H](C)O)C(C)C | inactive |
| CC(=O)N[C@@H](Cc1c[nH]c2ccccc12)C(=O)N[C@H](C(=O)N[C@H](C(=O)N[C@@H](Cc1cnc[nH]1)C(=O)N[C@@H](CCCNC(N)=O)C(=O)N[C@@H](CC(C)C)C(=O)N[C@@H](C)C(=O)NCC(=O)N[C@@H](CC(C)C)C(=O)N[C@@H](CC(C)C)C(=O)N[C@@H](CO)C(=O)N[C@@H](CCCNC(N)=O)C(=O)N[C@@H](CO)C(=O)NCC(=O)NCC(=O)N[C@H](C(=O)N[C@H](C(=O)N[C@@H](CCCCNC(=N)N)C(=O)N[C@@H](CCCCN)C(=O)N[C@@H](CC(N)=O)C(=O)N[C@@H](Cc1ccc2ccccc2c1)C(=O)N[C@H](C(=O)N1CCC[C@H]1C(=O)N[C@H](C(=O)N[C@@H](CC(=O)O)C(=O)N[C@H](C(=O)NCC(=O)N1C2CCCCC2C[C@H]1C(=O)N[C@@H](Cc1ccccc1)C(=O)N[C@@H](C)C(=O)N[C@@H](Cc1ccc2ccccc2c1)C(N)=O)C(C)C)[C@@H](C)O)C(C)C)C(C)C)C(C)C)[C@@H](C)O)C(C)C (stereo partly specified) | inactive |
| CC(=O)N[C@@H](Cc1c[nH]c2ccccc12)C(=O)N[C@H](C(=O)N[C@H](C(=O)N[C@@H](Cc1cnc[nH]1)C(=O)N[C@@H](CCCNC(N)=O)C(=O)N[C@@H](CC(C)C)C(=O)N[C@@H](C)C(=O)NCC(=O)N[C@@H](CC(C)C)C(=O)N[C@@H](CC(C)C)C(=O)N[C@@H](CO)C(=O)N[C@@H](CCCNC(N)=O)C(=O)N[C@@H](CO)C(=O)NCC(=O)NCC(=O)N[C@H](C(=O)N[C@H](C(=O)N[C@@H](CCCCNC(=N)N)C(=O)N[C@@H](CCCCN)C(=O)N[C@@H](CC(N)=O)C(=O)N[C@@H](Cc1ccccc1)C(=O)N[C@H](C(=O)N1CCC[C@H]1C(=O)N[C@H](C(=O)N[C@@H](CC(=O)O)C(=O)N[C@H](C(=O)NCC(=O)N1CCC[C@H]1C(=O)N1Cc2ccccc2C[C@H]1C(=O)N[C@@H](C)C(=O)N[C@@H](Cc1ccccc1)C(N)=O)C(C)C)[C@@H](C)O)C(C)C)C(C)C)C(C)C)[C@@H](C)O)C(C)C (Ac-WVTH[Cit]LAGLLS[Cit]SGGVV[hArg]KNFVPTDVGP[Tic]AF-NH2) | inactive |
| CC(=O)N[C@@H](Cc1c[nH]c2ccccc12)C(=O)N[C@H](C(=O)N[C@H](C(=O)N[C@@H](Cc1cnc[nH]1)C(=O)N[C@@H](CCCNC(N)=O)C(=O)N[C@@H](CC(C)C)C(=O)N[C@@H](C)C(=O)NCC(=O)N[C@@H](CC(C)C)C(=O)N[C@@H](CC(C)C)C(=O)N[C@@H](CO)C(=O)N[C@@H](CCCNC(=N)N)C(=O)N[C@@H](CO)C(=O)NCC(=O)NCC(=O)N[C@H](C(=O)N[C@H](C(=O)N[C@@H](CCCNC(=N)N)C(=O)N[C@@H](CCCCN)C(=O)N[C@@H](CC(N)=O)C(=O)N[C@@H](Cc1ccccc1)C(=O)N[C@H](C(=O)N1CCC[C@H]1C(=O)N[C@H](C(=O)N[C@@H](CC(=O)O)C(=O)N[C@H](C(=O)NCC(=O)N1CCC[C@H]1C(=O)N[C@@H](Cc1ccccc1)C(=O)N[C@@H](C)C(=O)N[C@@H](Cc1ccccc1)C(N)=O)C(C)C)[C@@H](C)O)C(C)C)C(C)C)C(C)C)[C@@H](C)O)C(C)C | inactive |
| CC(=O)N[C@@H](Cc1c[nH]c2ccccc12)C(=O)N[C@H](C(=O)N[C@H](C(=O)N[C@@H](Cc1cnc[nH]1)C(=O)N[C@@H](CCCNC(N)=O)C(=O)N[C@@H](CC(C)C)C(=O)N[C@@H](C)C(=O)NCC(=O)N[C@@H](CC(C)C)C(=O)N[C@@H](CC(C)C)C(=O)N[C@@H](CO)C(=O)N[C@@H](CCCNC(N)=O)C(=O)N[C@@H](CO)C(=O)NCC(=O)NCC(=O)N[C@H](C(=O)N[C@H](C(=O)N[C@@H](CCCCNC(=N)N)C(=O)N[C@@H](CCCCN)C(=O)N[C@@H](CC(N)=O)C(=O)N[C@@H](Cc1ccccc1)C(=O)N[C@H](C(=O)N1CCC[C@H]1C(=O)N[C@H](C(=O)N[C@@H](CC(=O)O)C(=O)N[C@H](C(=O)NCC(=O)N(C)CC(=O)N[C@@H](Cc1ccccc1)C(=O)N[C@@H](C)C(=O)N[C@@H](Cc1ccccc1)C(N)=O)C(C)C)[C@@H](C)O)C(C)C)C(C)C)C(C)C)[C@@H](C)O)C(C)C | inactive |
| CC(=O)N[C@@H](Cc1c[nH]c2ccccc12)C(=O)N[C@H](C(=O)N[C@H]1CCC(=O)NCCCC[C@@H](C(=O)NCC(=O)N[C@@H](CC(C)C)C(=O)N[C@@H](CC(C)C)C(=O)N[C@@H](CO)C(=O)N[C@@H](CCCNC(=N)N)C(=O)N[C@@H](CO)C(=O)NCC(=O)NCC(=O)N[C@H](C(=O)N[C@H](C(=O)N[C@@H](CCCNC(=N)N)C(=O)N[C@@H](CCCCN)C(=O)N[C@@H](CC(N)=O)C(=O)N[C@@H](Cc2ccccc2)C(=O)N[C@H](C(=O)N2CCC[C@H]2C(=O)N[C@H](C(=O)N[C@@H](CC(=O)O)C(=O)N[C@H](C(=O)NCC(=O)N2CCC[C@H]2C(=O)N[C@@H](Cc2ccccc2)C(=O)N[C@@H](C)C(=O)N[C@@H](Cc2ccccc2)C(N)=O)C(C)C)[C@@H](C)O)C(C)C)C(C)C)C(C)C)NC(=O)[C@H](CC(C)C)NC(=O)[C@H](CCCNC(=N)N)NC(=O)[C@H](Cc2cnc[nH]2)NC1=O)C(C)C | inactive |
| CC(=O)N[C@@H](Cc1c[nH]c2ccccc12)C(=O)N[C@H](C(=O)N[C@H](C(=O)N[C@@H](Cc1cnc[nH]1)C(=O)N[C@@H](CCCNC(N)=O)C(=O)N[C@@H](CC(C)C)C(=O)N[C@@H](C)C(=O)NCC(=O)N[C@@H](CC(C)C)C(=O)N[C@@H](CC(C)C)C(=O)N[C@@H](CO)C(=O)N[C@@H](CCCNC(N)=O)C(=O)N[C@@H](CO)C(=O)NCC(=O)NCC(=O)N[C@H](C(=O)N[C@H](C(=O)N[C@@H](CCCCNC(=N)N)C(=O)N[C@@H](CCCCN)C(=O)N[C@@H](CC(N)=O)C(=O)N[C@@H](Cc1ccccc1)C(=O)N[C@H](C(=O)N1CCC[C@H]1C(=O)N[C@H](C(=O)N[C@@H](CC(=O)O)C(=O)N[C@H](C(=O)NCC(=O)N1CCC[C@H]1C(=O)N1Cc2[nH]c3ccccc3c2C[C@H]1C(=O)N[C@@H](C)C(=O)N[C@@H](Cc1ccccc1)C(N)=O)C(C)C)[C@@H](C)O)C(C)C)C(C)C)C(C)C)[C@@H](C)O)C(C)C (Ac-WVTH[Cit]LAGLLS[Cit]SGGVV[hArg]KNFVPTDVGP[Tpi]AF-NH2) | inactive |
| CC(=O)N[C@@H](Cc1c[nH]c2ccccc12)C(=O)N[C@H](C(=O)N[C@H](C(=O)N[C@@H](Cc1cnc[nH]1)C(=O)N[C@@H](CCCNC(N)=O)C(=O)N[C@@H](CC(C)C)C(=O)N[C@@H](C)C(=O)NCC(=O)N[C@@H](CC(C)C)C(=O)N[C@@H](CC(C)C)C(=O)N[C@@H](CO)C(=O)N[C@@H](CCCNC(N)=O)C(=O)N[C@@H](CO)C(=O)NCC(=O)NCC(=O)N[C@H](C(=O)N[C@H](C(=O)N[C@@H](CCCCNC(=N)N)C(=O)N[C@@H](CCCCN)C(=O)N[C@@H](CC(N)=O)C(=O)N[C@@H](Cc1ccccc1)C(=O)N[C@H](C(=O)N1CCC[C@H]1C(=O)N[C@H](C(=O)N[C@@H](CC(=O)O)C(=O)N[C@H](C(=O)NCC(=O)N1CCC[C@@H]1C(=O)N[C@@H](Cc1ccc(-c2ccccc2)cc1)C(=O)N[C@@H](C)C(=O)N[C@@H](Cc1ccccc1)C(N)=O)C(C)C)[C@@H](C)O)C(C)C)C(C)C)C(C)C)[C@@H](C)O)C(C)C | inactive |
| CC(=O)N[C@@H](Cc1c[nH]c2ccccc12)C(=O)N[C@H](C(=O)N[C@H]1CCC(=O)NCCCC[C@@H](C(=O)NCC(=O)N[C@H]2CCC(=O)NCCCC[C@@H](C(=O)NCC(=O)NCC(=O)N[C@H](C(=O)N[C@H](C(=O)N[C@@H](CCCCNC(=N)N)C(=O)N[C@@H](CCCCN)C(=O)N[C@@H](CC(N)=O)C(=O)N[C@@H](Cc3ccccc3)C(=O)N[C@H](C(=O)N3CCC[C@H]3C(=O)N[C@H](C(=O)N[C@@H](CC(=O)O)C(=O)N[C@H](C(=O)NCC(=O)N3CCC[C@H]3C(=O)N[C@@H](Cc3ccccc3)C(=O)N[C@@H](C)C(=O)N[C@@H](Cc3ccccc3)C(N)=O)C(C)C)[C@@H](C)O)C(C)C)C(C)C)C(C)C)NC(=O)[C@H](CCCNC(=N)N)NC(=O)[C@H](CO)NC(=O)[C@H](CC(C)C)NC2=O)NC(=O)[C@H](CC(C)C)NC(=O)[C@H](CCCNC(=N)N)NC(=O)[C@H](Cc2cnc[nH]2)NC1=O)C(C)C | inactive |
